Measured values as given in patent US20060142297A1, “Combination product of inhibitor of the src family of non-recetpor tyrosine kinases and gemcitabine” (priority 2002, published 2006).
Several values for one entry are separate records, joined by “and”; a condition that tells them apart may be missing. Equal values may be shown once.

Key:
[1] = Body weight of treated nude mice in the L3.6pl pancreatic tumour model; type: in vivo, male athymic nude mice
Procedure: (§1) L3.6pl pancreatic cancer cells were obtained after successive cycles of cell selection from nude mouse tumour tissue that developed after injection of COLO 357 human pancreatic cancer cells. L3.6pl cancer cells (1×10^6 cells) were injected into the pancreas of each animal in several groups of male athymic nude mice (n=8 to 10 per group). […] On the days where both agents were given, the gemcitabine was dosed at least 1 hour before test compound Src-1. A control group of 10 mice received intraperitoneal injections of an equivalent volume of saline according to the same treatment schedule as the combination group. The animals were sacrificed 32 days after tumour cell injection. The pancreatic tumour weight was measured. The incidence of liver metastases was evaluated. All macroscopically enlarged liver nodules were evaluated by histopathology to confirm tumour metastasis.

[2] = tested on: L3.6pl pancreatic cancer cells; test: Orthotopic L3.6pl pancreatic tumour model in nude mice: pancreatic tumour weight and liver metastases; type: in vivo, human; details: for Liver Metastases: animals with metastases/animals
Excerpt: as §1, with “The test method has been described by C J Bruns et al., Cancer Research, 2000, 60, 2926-2935 and involves the injection of pancreatic tumour cells derived from the COLO 357 human pancreatic cancer cell line into pancreas tissue in a group of nude mice and an evaluation of tumour growth and metastasis into liver node tissue. L3.6pl pancreatic” for “L3.6pl pancreatic”

[3] = Src-1 25 mg/kg orally by gavage daily, days 1-5 and 8-12, 32 days after tumour cell injection
[4] = Src-1 50 mg/kg orally by gavage daily, days 1-5 and 8-12, 32 days after tumour cell injection

SMILES: Cl.Nc1ccn([C@@H]2O[C@H](CO)[C@@H](O)C2(F)F)c(=O)n1 [gemcitabine, 2′-deoxy-2′,2′-difluorocytidine monohydrochloride]
- Average Body Weight +/− std dev ([1]; gemcitabine 100 mg/kg intraperitoneal twice weekly): 22.7 ± 1.5 g
- Liver Metastases ([2]; gemcitabine 100 mg/kg intraperitoneal twice weekly (days 2, 5, 9, 12), sacrificed 32 days after tumour cell injection, monohydrochloride): ⅕ and 1/5
- Average Tumour Weight +/− std dev ([2]; gemcitabine 100 mg/kg intraperitoneal twice weekly, 32 days after tumour cell injection): 393 ± 68 mg

SMILES: COc1ccc(Cl)c(Nc2ncnc3cc(OCC4CCN(C)CC4)c(OC)cc23)c1 [Src-1, 4-(2-chloro-5-methoxyanilino)-6-methoxy-7-(N-methylpiperidin-4-ylmethoxy)quinazoline]
- Average Body Weight +/− std dev ([1]; Src-1 25 mg/kg orally by gavage daily, days 1-5 and 8-12): 22.6 ± 1.4 g
- Average Body Weight +/− std dev ([1]; Src-1 50 mg/kg orally by gavage daily, days 1-5 and 8-12): 22.3 ± 6.8 g
- Average Tumour Weight +/− std dev [2, 3]: 816 ± 118 mg
- Liver Metastases [2, 3]: 0/9
- Average Tumour Weight +/− std dev [2, 4]: 827 ± 176 mg
- Liver Metastases [2, 4]: 0/9
